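A five-concentration, 48-hour dose response in 96-well plates underlies each endpoint, interpolated linearly between surrounding concentrations. TGI: total growth inhibition.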
What was measured:
Experiment in all cases: NCI tumour cell line growth inhibition, 48 h
CCRF-CEM leukemia = tested on: CCRF-CEM leukemia
DU-145 prostate = tested on: DU-145 prostate
HOP-92 NSCLC = tested on: HOP-92 NSCLC
IGROV1 ovarian = tested on: IGROV1 ovarian
K-562 leukemia = tested on: K-562 leukemia
KM12 colon = tested on: KM12 colon
M14 melanoma = tested on: M14 melanoma
MDA-N = tested on: MDA-N
NCI-H226 lung = tested on: NCI-H226 lung
PC-3 prostate = tested on: PC-3 prostate
SF-295 CNS = tested on: SF-295 CNS

Row | Structure (SMILES) | TGI (CCRF-CEM leukemia) | TGI (DU-145 prostate) | TGI (HOP-92 NSCLC) | TGI (IGROV1 ovarian) | TGI (K-562 leukemia) | TGI (KM12 colon) | TGI (M14 melanoma) | TGI (MDA-N) | TGI (NCI-H226 lung) | TGI (PC-3 prostate) | TGI (SF-295 CNS)
1 | COc1ccc(-n2cnc3c(NC(CCSC)C(=O)O)ncnc32)cc1 (stereo not given) | > 100 µM | > 100 µM | > 100 µM | > 100 µM | > 100 µM | > 100 µM | > 100 µM | > 100 µM | > 100 µM | > 100 µM | > 100 µM
2 | COC(=O)C1=C(C)N2[C@H](C(=O)O)CO[C@@]2(C)[C@H](C(=O)OC)[C@H]1c1cccc([N+](=O)[O-])c1 | > 100 µM | > 100 µM | > 100 µM | > 100 µM | > 100 µM | > 100 µM | > 100 µM | > 100 µM | > 100 µM | > 100 µM | > 100 µM
3 | CCOc1cc(NC(C)=O)ccc1C(=O)NN1C(=O)C(Cl)C1c1ccco1 (stereo not given) | 49.1 µM | 31.1 µM | 35.3 µM | 28.8 µM | 51.3 µM | 33.6 µM | 36.8 µM | 36.1 µM | > 100 µM | 32.3 µM | 30.5 µM
4 | OC(c1ccc(-c2ccccc2)cc1)C(F)(F)c1nc2ccccc2o1 (stereo not given) | > 100 µM | > 82.7 µM | > 86.3 µM | > 100 µM | > 61.3 µM | > 100 µM | > 100 µM | > 100 µM | > 100 µM | > 100 µM | > 100 µM
5 | COC(=O)c1cnn2c1n[n+]([O-])c1ccccc12 | > 100 µM | > 100 µM | > 100 µM | > 100 µM | > 100 µM | > 100 µM | > 100 µM | > 100 µM | > 100 µM | > 100 µM | > 100 µM
6 | COc1cc([C@@H]2c3cc(O)c(OC)cc3C=C(C(N)=O)[C@H]2C(N)=O)ccc1O | > 100 µM | > 100 µM | > 100 µM | > 100 µM | > 100 µM | > 100 µM | > 100 µM | > 100 µM | > 100 µM | > 100 µM | > 100 µM
7 | O=[As](O)(O)c1ccc(N=Nc2ccc(O)cc2)cc1 | > 100 µM | > 100 µM | > 100 µM | > 100 µM | > 100 µM | > 100 µM | > 100 µM | > 100 µM | > 100 µM | > 100 µM | > 100 µM
8 | C[C@H]1C=C2[C@@H]3CC(C)(C(=O)O)CC[C@]3(C)CC[C@]2(C)[C@]2(C)CC[C@H]3C(C)(C)[C@@H](OC(=O)c4cccc5c(=O)c6ccccc6[nH]c45)CC[C@]3(C)[C@@H]12 (stereo not given in full) | > 100 µM | > 100 µM | > 100 µM | > 100 µM | > 100 µM | > 100 µM | > 100 µM | > 100 µM | > 100 µM | > 100 µM | > 100 µM
9 | COC(=O)c1c(OC(C)=O)ccc2c1c1c(OC(C)=O)c3ccccc3c(OC(C)=O)c1n2Cc1ccccc1 | 45 µM | 45.5 µM | 3.27 µM | 19.7 µM | > 50 µM | 5.65 µM | 17.2 µM | 41.1 µM | > 50 µM | 32 µM | 10.9 µM
10 | CCOc1ccc(-n2nnc3c(N)nc(N)nc32)cc1 | > 100 µM | > 100 µM | > 100 µM | > 100 µM | > 100 µM | > 100 µM | > 100 µM | > 100 µM | > 100 µM | > 100 µM | > 100 µM
11 | N#C/C(=C\c1c[nH]c2ccccc12)C(=O)c1ccc(O)c(O)c1 | > 36.2 µM | > 100 µM | 99.2 µM | > 89.4 µM | > 67 µM | > 100 µM | > 100 µM | > 100 µM | > 100 µM | > 100 µM | 67 µM
12 | CCOC(=O)CSc1nnc(C(Sc2nc(-c3ccccc3)c(-c3ccccc3)[nH]2)C(C)C)n1-c1ccccc1 (stereo not given) | 28.4 µM | > 100 µM | > 10 µM | > 10 µM | > 100 µM | > 31.6 µM | 20.1 µM | > 100 µM | 26 µM | > 100 µM | > 10 µM
13 | CC1OC(OC2C(OC(=O)[C@@H]3CC(C)(C)C[C@H]4C5=CC[C@@H]6[C@@]7(C)C[C@H](O)[C@H](OC8OC(CO)C(O)C(O)C8O)[C@@](C)(CO)[C@@H]7[C@H](O)C[C@@]6(C)[C@]5(C)CC[C@@]34C)OCC(O)C2O)C(O)C(O)C1O (stereo not given in full) | > 7.5 µM | > 7.5 µM | > 7.5 µM | > 7.5 µM | > 7.5 µM | > 7.5 µM | > 7.5 µM | > 7.5 µM | > 7.5 µM | > 7.5 µM | > 7.5 µM
14 | COC(=O)C1=C(OC(=O)c2ccccc2)C(C(=O)OC)[C@]2(O)[C@@H](C(=O)OC)[C@H]1C[C@@H](c1ccccc1)[C@@H]2C(=O)OC (stereo not given in full) | 10.6 µM | 30.3 µM | 27.3 µM | 21.1 µM | 18 µM | > 100 µM | 9.57 µM | 3.95 µM | 19.2 µM | 23.7 µM | 36.7 µM
15 | Brc1c(C#CCC2CCCCC2)ccc(C#CCC2CCCCC2)c1Br | > 100 µM | > 100 µM | > 100 µM | > 100 µM | > 100 µM | > 100 µM | > 100 µM | > 100 µM | > 100 µM | > 100 µM | > 100 µM

Reference: PubChem BioAssay (NCI)
